Publication PMC10463376, “Design, synthesis, in vitro anticancer, molecular docking and SAR studies of new series of pyrrolo[2,3-d]pyrimidine derivatives” (BMC Chemistry, 2023)
Converted amounts (≈) assume the structure as drawn. “Also recorded” adds a separate entry of the source.

What was measured:
MCF7 breast cancer cells = assay: MTT assay, MCF7; details: for IC50 / cytotoxicity at 100 µg/mL: Homo sapiens, MCF7, 72 h; for IC50: read-out: IC50 MCF7
From the text: (§1) All of the following steps were done in a sterile Laminar flow class II biosafety cabinet (Baker, SG406INT, Sanford, ME, USA). DMEM was used as a suspension medium for breast cancer (MCF7), colorectal cancer (HCT116), prostate cancer (PC3), liver cancer (HePG2), pancreatic cancer (PACA2) and lung cancer (A549), while normal cell line (BJ1) was suspended in DMEM-F12 medium. The selected cell lines were purchased from American Type Culture Collection (ATCC). The media were supplemented with a 1% antimycotic-antibiotic mixture (10,000 µg/ml streptomycin sulfate, 25 µg/ml Amphotericin B, and 10,000 U/ml Potassium Penicillin) and 1% L-glutamine. 10 × 10^4cells/well were seeded in 96 well microtiter plates and incubated for 24 h at 37 ℃ under 5% carbon dioxide using a water-jacketed Carbon dioxide incubator (Sheldon, SCO5A, OR, USA). […] After the incubation time of 72 h, the medium was removed. Afterward, 40 µl MTT salt ([…]) was added to each well and kept for 4 h under the same conditions of 37 °C and 5% carbon dioxide. Finally, 200 μl of 10% Sodium dodecyl sulfate (SDS) in deionized water was added to each well and incubated overnight at 37 °C. The step of SDS addition was done to stop the reaction and dissolve the formed formazan crystals. The absorbance was then measured at a wavelength of 595 nm and the reference wavelength was set at 620 nm using a microplate multi-well reader (Bio-Rad Laboratories Inc., model 3356, California, USA). […] A statistical significance analysis was determined between the samples and the negative control using an independent t-test by SPSS 11 program. Dimethyl sulfoxide (DMSO) was the vehicle that dissolved our synthesized compounds and its concentration in the cells was less than 0.2%. IC50 values were calculated using the GraphPad Prism 6 program. The degree of selectivity of the synthetic compounds was expressed as SI = IC50 of a pure compound in a normal cell line/IC50 of the same pure compound in the cancer cell line, where IC50 is the concentration of the compound required to kill 50% of the cells.

A549 lung cancer cells = assay: MTT assay, A549; details: for cytotoxicity at 100 µg/mL: read-out: MTT cell proliferation mortality assay (%) A549, at 100 μg/ml, 72 h
From the text: as §1

[1] = system: HCT116 colorectal cancer cells; assay: MTT assay, HCT116; details: Homo sapiens, HCT-116, 72 h; for cytotoxicity at 100 µg/mL: read-out: MTT cell proliferation mortality assay (%) HCT116, at 100 μg/ml, 72 h
From the text: as §1

[2] = system: PC3 prostate cancer cells; assay: MTT assay, PC3; details: 72 h; for IC50 / cytotoxicity at 100 µg/mL: Homo sapiens; for IC50: read-out: IC50 PC3; for cytotoxicity at 100 µg/mL: read-out: MTT cell proliferation mortality assay (%) PC3, at 100 μg/ml, 72 h
From the text: as §1

HePG2 liver cancer cells = assay: MTT assay, HePG2; details: Homo sapiens, HepG2, 72 h; for IC50: read-out: IC50 HePG2; for cytotoxicity at 100 µg/mL: read-out: MTT cell proliferation mortality assay (%) HePG2
From the text: as §1

[3] = system: PACA2 pancreatic cancer cells; assay: MTT assay, PACA2; details: Homo sapiens, PaCa-2, 72 h; for cytotoxicity at 100 µg/mL: read-out: MTT cell proliferation mortality assay (%) PACA2
From the text: as §1

caspase 8 = assay: ELISA caspase 8 in MCF7 cells; assay type: cell-based, human; details: MCF7 cells treated with IC50; untreated control 3.99
From the text: (§2) Elisa assay was used to determine the concentrations of Human caspases-3, -8, Bax, and Bcl2 in PACA2- and A549-treated cells. Also, the concentrations of caspase-8, Bax, and Bcl2 in MCF7-treated cells were detected. The procedures were followed up according to the instructions described in the following kits; Invitrogen human Caspase-3 Elisa Kit, Catalog KHO1091, DRG® human Caspase-8 ELISA Kit, Catalog (EIA-4863), Human Bax ELISA Kit (ab199080) and Human Bcl-2 ELISA Kit (ab119506) respectively. Shortly, the protocol described in the above kits was as followed; at the beginning, all the reagents, samples and standards were prepared. 100 μl of samples or standard were micro pipetted to each well of micro-well strip and kept at room temperature for 2 h. After washing the micro-well strips three times with washing buffer, the prepared antibody (anti-rabbit-IgG-HRP) at a concentration of 100 μl was added to each well at room temperature for 1 h. Then, the micro-well strips were washed again three times. Afterward, the prepared tetramethyl-benzidine (TMB) solution (100 μl) was added to the micro-well strips and kept for 10 min. At last, about 50 μl of stop solution was pipetted to each well to inactivate the enzyme completely. The absorbance of all samples was measured at a wavelength of 460 nm and compared to that of the standard. Curve fitting software was used to plot a standard curve and the concentrations for the unknown samples were measured from the standard curve.

BAX [4] = assay: ELISA BAX in MCF7 cells; assay type: cell-based, human; details: MCF7 cells treated with IC50; untreated control 4.92
From the text: as §2

Bcl2 = assay: ELISA Bcl2 in MCF7 cells; assay type: cell-based, human; details: MCF7 cells treated with IC50; untreated control 14.37
From the text: as §2

P53 = assay: RT-qPCR P53 mRNA in MCF7; assay type: cell-based, human; details: MCF7, vs negative control
Procedure: (§3) All of the extractions were conducted on ice with ice-cold reagents. Total RNA from the different cell lines was isolated using Trizol (Invitrogen; Life Technologies, USA) according to the method of Sthoeger et al.. The 260:280 ratios were measured to determine RNA quality after the isolation method was completed according to the manufacturer’s instructions. A high-capacity cDNA reverse transcription kit was used to produce complementary DNA (cDNA) (Applied Biosystems, USA). […] The relative gene expression method (i.e., ΔΔCT) was used to analyze the real-time PCR data, as explained in Applied Biosystem User Bulletin No. 2. Each sample and gene were normalized using the β-actin gene.

BAX [5] = assay: RT-qPCR BAX mRNA in MCF7; assay type: cell-based, human; details: MCF7, vs negative control
Procedure: as §3

Bcl-2 = assay: RT-qPCR Bcl-2 mRNA in MCF7; assay type: cell-based, human; details: MCF7, vs negative control
Procedure: as §3

CDK4 = assay: RT-qPCR CDK4 mRNA in MCF7; assay type: cell-based, human; details: MCF7, vs negative control
Procedure: as §3

IL-8 = assay: RT-qPCR IL-8 mRNA in MCF7; assay type: cell-based, human; details: MCF7, vs negative control
Procedure: as §3

DR4 = assay: RT-qPCR DR4 mRNA in MCF7; assay type: cell-based, human; details: MCF7, vs negative control
Procedure: as §3

DR5 = assay: RT-qPCR DR5 mRNA in MCF7; assay type: cell-based, human; details: MCF7, vs negative control
Procedure: as §3

[6] = MTT assay, normal cell line BJ1; assay type: cell-based; details: human, at 100 μg/ml, read-out: MTT cell proliferation mortality assay (%) BJ1
From the text: as §1

[7] = read-out: MTT cell proliferation mortality assay (%) MCF7

COc1ccc(-c2c(Cl)n(-c3ccc(Cl)cc3Cl)c3ncnc(NN)c23)cc1OC [Compound 14b, 6-chloro-7-(2,4-dichlorophenyl)-5-(3,4-dimethoxyphenyl)-4-hydrazineyl-7H-pyrrolo[2,3-d]pyrimidine]
IC50 (MCF7 breast cancer cells): 16.8 ± 0.9 µg/mL (≈ 36.1 µM)
cytotoxicity at 100 µg/mL (MCF7 breast cancer cells; [7]): 94.9 ± 1.1%
cytotoxicity (MCF7 breast cancer cells; read-out: MTT cell proliferation mortality assay (%) MCF7, at 100 μg/ml, 72 h): 80 to 95%
cytotoxicity at 100 µg/mL (A549 lung cancer cells; Homo sapiens, A549, 72 h): 100%
cytotoxicity at 100 µg/mL [1]: 100%
IC50 [2]: 18.7 ± 0.2 µg/mL (≈ 40.2 µM)
cytotoxicity at 100 µg/mL [2]: 100%
IC50 (HePG2 liver cancer cells): 17.5 ± 0.8 µg/mL (≈ 37.7 µM)
cytotoxicity at 100 µg/mL (HePG2 liver cancer cells): 100%
cytotoxicity at 100 µg/mL [3]: 100%
caspase 8 level (ELISA) (caspase 8): 18.263 pg/mL
BAX level (ELISA) (BAX [4]): 14.25 pg/mL
Bcl2 level (ELISA) (Bcl2): 8.25 pg/mL
P53 mRNA level (P53): significantly increased; also recorded: up-regulated
BAX mRNA level (BAX [5]): up-regulated
Bcl-2 mRNA level (Bcl-2): down-regulated
CDK4 mRNA level (CDK4): lowered; also recorded: down-regulated
IL-8 mRNA level (IL-8): lowered; also recorded: down-regulated
DR4 mRNA level (DR4): increased; also recorded: up-regulated
DR5 mRNA level (DR5): increased; also recorded: up-regulated

NNc1ncnc2c1c(-c1ccc(Br)cc1)c(Cl)n2-c1ccc(Cl)cc1Cl [Compound 14a, 5-(4-bromophenyl)-6-chloro-7-(2,4-dichlorophenyl)-4-hydrazineyl-7H-pyrrolo[2,3-d]pyrimidine]
IC50 (MCF7 breast cancer cells): 1.7 ± 0.4 µg/mL (≈ 3.52 µM)
cytotoxicity at 100 µg/mL (MCF7 breast cancer cells; [7]): 100%
cytotoxicity at 100 µg/mL (A549 lung cancer cells; Homo sapiens, A549, 72 h): 100%
cytotoxicity at 100 µg/mL [1]: 100%
IC50 (HePG2 liver cancer cells): 37.9 ± 0.9 µg/mL (≈ 78.4 µM)
cytotoxicity at 100 µg/mL (HePG2 liver cancer cells): 100%
cytotoxicity at 100 µg/mL [3]: 100%
cytotoxicity at 72 h, 100 μg/ml [6]: 30.8 ± 0.2%
caspase 8 level (ELISA) (caspase 8): 8.76 pg/mL
BAX level (ELISA) (BAX [4]): 9.99 pg/mL
Bcl2 level (ELISA) (Bcl2): 2.4 pg/mL
P53 mRNA level (P53): significantly increased; also recorded: up-regulated
BAX mRNA level (BAX [5]): up-regulated
Bcl-2 mRNA level (Bcl-2): down-regulated
CDK4 mRNA level (CDK4): lowered; also recorded: down-regulated
IL-8 mRNA level (IL-8): lowered; also recorded: down-regulated
DR4 mRNA level (DR4): increased; also recorded: up-regulated
DR5 mRNA level (DR5): increased; also recorded: up-regulated

CN1CCN(c2nc(C(Cl)(Cl)Cl)nc3c2c(-c2ccc(Br)cc2)c(Cl)n3-c2ccc(Cl)cc2Cl)CC1 [Compound 17, 5-(4-bromophenyl)-6-chloro-7-(2,4-dichlorophenyl)-4-(4-methylpiperazin-1-yl)-2-(trichloromethyl)-7H-pyrrolo[2,3-d]pyrimidine]
cytotoxicity at 100 µg/mL (MCF7 breast cancer cells; [7]): 74.3 ± 1.7%
IC50 (A549 lung cancer cells; Homo sapiens, A549, 72 h, read-out: IC50 A549): 34.1 ± 1.5 µg/mL (≈ 51 µM)
cytotoxicity at 100 µg/mL (A549 lung cancer cells; Homo sapiens, A549, 72 h): 80 to 90%
cytotoxicity (A549 lung cancer cells; read-out: MTT cell proliferation mortality assay (%) A549, at 100 μg/ml, 72 h): 89.2 ± 0.4%
IC50 ([1]; read-out: IC50 HCT116): 37.8 ± 0.4 µg/mL (≈ 56.5 µM)
cytotoxicity at 100 µg/mL [1]: 100%
IC50 [2]: 66.8 ± 2 µg/mL (≈ 99.8 µM)
cytotoxicity at 100 µg/mL [2]: 80 to 90%
cytotoxicity ([2]; read-out: MTT cell proliferation mortality assay (%) PC3, at 100 μg/ml): 79.5 ± 0.5%
IC50 (HePG2 liver cancer cells): 8.7 ± 0.8 µg/mL (≈ 13 µM)
cytotoxicity at 100 µg/mL (HePG2 liver cancer cells): 100%
IC50 ([3]; read-out: IC50 PACA2): 6.4 ± 0.7 µg/mL (≈ 9.57 µM)
cytotoxicity at 100 µg/mL [3]: 100%
cytotoxicity at 72 h, 100 μg/ml [6]: 12.5 ± 1.7%
